# From ChEMBL document CHEMBL5096175, “An insight into the medicinal attributes of berberine derivatives: A review” (Bioorg Med Chem, 2021)
# What was measured:
# HCT-8 [1] = assay: Antiproliferative activity against human HCT-8 cells assessed as inhibition of cell proliferation incubated for 48 hrs by MTT assay; assay type: functional, cell-based; details: HCT-8, 48 h
# HCT-116 = assay: Antiproliferative activity against human HCT-116 cells assessed as inhibition of cell proliferation incubated for 48 hrs by MTT assay; assay type: functional, cell-based; details: HCT-116, 48 h
# LS174T = assay: Antiproliferative activity against human LS174T cells assessed as inhibition of cell proliferation incubated for 48 hrs by MTT assay; assay type: functional, cell-based
# CCRF S-180 = assay: Antiproliferative activity against mouse CCRF S-180 cells assessed as inhibition of cell proliferation incubated for 48 hrs by MTT assay; assay type: functional, cell-based; details: CCRF S-180, 48 h
# ECa-109 cell line = assay: Antiproliferative activity against human Eca-109 cells assessed as inhibition of cell proliferation incubated for 48 hrs by MTT assay; assay type: functional, cell-based; details: ECa-109, 48 h
# SW-620 = assay: Antiproliferative activity against human SW620 cells assessed as inhibition of cell proliferation incubated for 48 hrs by MTT assay; assay type: functional, cell-based; details: SW-620, 48 h
# MKN-28 = assay: Antiproliferative activity against human MKN-28 cells assessed as inhibition of cell proliferation incubated for 48 hrs by MTT assay; assay type: functional, cell-based; details: MKN-28, 48 h
# SGC-7901 = assay: Antiproliferative activity against human SGC-7901 cells assessed as inhibition of cell proliferation incubated for 48 hrs by MTT assay; assay type: functional, cell-based; details: SGC-7901, 48 h
# [2] = molecular target: Amine oxidase [flavin-containing] B (Homo sapiens, UniProt P27338); assay: Inhibition of human MAO-B preincubated for 30 mins followed by substrate addition and measured for 10 to 40 mins by fluorescence based assay
# Amine oxidase [flavin-containing] B, sequence (P27338 whole entry): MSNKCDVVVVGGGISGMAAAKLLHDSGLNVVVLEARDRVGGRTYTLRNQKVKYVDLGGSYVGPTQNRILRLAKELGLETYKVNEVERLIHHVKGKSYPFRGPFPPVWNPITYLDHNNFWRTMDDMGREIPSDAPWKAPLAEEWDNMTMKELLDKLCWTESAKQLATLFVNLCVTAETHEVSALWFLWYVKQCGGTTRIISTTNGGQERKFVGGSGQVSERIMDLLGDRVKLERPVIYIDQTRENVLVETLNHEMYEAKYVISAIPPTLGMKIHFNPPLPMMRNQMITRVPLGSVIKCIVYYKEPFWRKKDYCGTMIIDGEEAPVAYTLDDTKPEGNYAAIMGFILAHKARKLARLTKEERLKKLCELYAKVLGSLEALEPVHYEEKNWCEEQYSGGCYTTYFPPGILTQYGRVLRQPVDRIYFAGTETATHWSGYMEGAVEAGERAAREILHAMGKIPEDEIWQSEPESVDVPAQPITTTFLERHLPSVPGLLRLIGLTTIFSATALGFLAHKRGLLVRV
# Acetylcholinesterase = Acetylcholinesterase (Homo sapiens, UniProt P22303); assay: Inhibition of acetylcholinesterase (unknown origin) using acetylthiocholine iodide as substrate incubated for 10 mins by Ellman's colorimetric method
# Acetylcholinesterase, sequence (P22303 whole entry): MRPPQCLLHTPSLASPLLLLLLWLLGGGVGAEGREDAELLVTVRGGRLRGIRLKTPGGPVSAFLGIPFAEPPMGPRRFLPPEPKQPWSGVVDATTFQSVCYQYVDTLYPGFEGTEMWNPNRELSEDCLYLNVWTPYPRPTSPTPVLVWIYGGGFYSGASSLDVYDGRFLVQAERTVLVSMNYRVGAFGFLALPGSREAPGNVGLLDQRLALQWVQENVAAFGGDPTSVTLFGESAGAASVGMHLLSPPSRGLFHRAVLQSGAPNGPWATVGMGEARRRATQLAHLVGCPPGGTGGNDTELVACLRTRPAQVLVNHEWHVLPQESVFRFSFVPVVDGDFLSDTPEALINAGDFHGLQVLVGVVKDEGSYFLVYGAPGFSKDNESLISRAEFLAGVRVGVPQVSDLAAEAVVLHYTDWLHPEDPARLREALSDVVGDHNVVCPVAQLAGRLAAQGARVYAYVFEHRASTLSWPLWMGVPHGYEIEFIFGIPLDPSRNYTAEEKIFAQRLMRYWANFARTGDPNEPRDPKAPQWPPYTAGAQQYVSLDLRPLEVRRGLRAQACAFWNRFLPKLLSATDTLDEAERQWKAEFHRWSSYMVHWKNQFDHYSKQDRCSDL
# HeLa [3] = assay: Antiproliferative activity against human HeLa cells assessed as inhibition of cell growth incubated for 72 hrs by MTT assay; assay type: functional, cell-based
# A549 = assay: Antiproliferative activity against human A549 cells assessed as inhibition of cell growth incubated for 72 hrs by MTT assay; assay type: functional, cell-based; details: A549, 72 h
# HCT-8 [4] = assay: Antiproliferative activity against human HCT-8 cells assessed as inhibition of cell growth incubated for 72 hrs by MTT assay; assay type: functional, cell-based; details: HCT-8, 72 h
# Bel-7402 = assay: Antiproliferative activity against human Bel-7402 cells assessed as inhibition of cell growth incubated for 72 hrs by MTT assay; assay type: functional, cell-based; details: Bel-7402, 72 h
# HEK-293T = assay: Antiinflammatory activity against HEK-293T cells assessed as inhibition of TNF-alpha induced NF-kappaB activation at 5 uM preincubated for 2 hrs followed by TNFalpha stimulation for 6 hrs by dual-luciferase reporter assay relative to control; assay type: functional; details: Homo sapiens, time 8 hrs
# Ca-Ski = assay: Anticancer activity against human Ca-Ski cells assessed as inhibition of cell growth by Sulforhodamine B colorimetric assay; assay type: functional, cell-based
# HeLa [5] = assay: Cytotoxicity against human HeLa cells assessed as inhibition of cell growth by Sulforhodamine B colorimetric assay; assay type: functional, cell-based
# MCF7 = assay: Antiproliferative activity against human MCF7 cells assessed as inhibition of cell growth incubated for 72 hrs by MTT assay; assay type: functional, cell-based; details: MCF7, 72 h
# [6] = Inhibition of hypoxia induced HIF-1 transcriptional activity in human T47D cells incubated for 1 hr followed by exposure to hypoxic condition for 20 hrs by renilla and HRE-luciferase based dual-luciferase reporter assay; assay type: cell-based
# [7] = Antioxidant activity assessed as ABTS radical scavenging activity incubated for 10 mins by UV spectrophotometeric analysis; assay type: functional
# [8] = Antioxidant activity assessed as DPPH radical scavenging activity measured after 25 mins by UV visible spectrophotometeric analysis; assay type: functional
# Candida albicans = assay: Antifungal activity against Candida albicans ATCC 90023 assessed as inhibition of fungal growth incubated for 24 hrs; assay type: functional
# Candida parapsilosis = assay: Antifungal activity against Candida parapsilosis ATCC 22019 assessed as inhibition of fungal growth incubated for 24 hrs; assay type: functional; details: Lodderomyces parapsilosis
# Escherichia coli = assay: Antibacterial activity against Escherichia coli CICC 10389 assessed as inhibition of bacterial growth incubated for 24 hrs by broth microdilution method; assay type: functional
# Clostridium perfringens = assay: Antibacterial activity against Clostridium perfringens CICC 22949 assessed as inhibition of bacterial growth incubated for 24 hrs by broth microdilution method; assay type: functional
# Staphylococcus aureus [9] = assay: Antibacterial activity against Staphylococcus aureus CICC 23656 assessed as inhibition of bacterial growth incubated for 24 hrs by broth microdilution method; assay type: functional
# Streptococcus pyogenes = assay: Antibacterial activity against Streptococcus pyogenes CICC 10356 assessed as inhibition of bacterial growth incubated for 24 hrs by broth microdilution method; assay type: functional
# Shigella dysenteriae = assay: Antibacterial activity against Shigella dysenteriae CICC 23829 assessed as inhibition of bacterial growth incubated for 24 hrs by broth microdilution method; assay type: functional
# Staphylococcus aureus [10] = assay: Antibacterial activity against methicillin-resistant Staphylococcus aureus ATCC 700699 assessed as inhibition of bacterial growth incubated for 24 hrs by broth microdilution method; assay type: functional
# Salmonella enteritidis = assay: Antibacterial activity against Salmonella enteritidis CICC 24119 assessed as inhibition of bacterial growth incubated for 24 hrs by broth microdilution method; assay type: functional, Salmonella enterica subsp. enterica serovar Enteritidis; details: Salmonella enterica
# Pseudomonas aeruginosa = assay: Antibacterial activity against Pseudomonas aeruginosa CICC 10419 assessed as inhibition of bacterial growth incubated for 24 hrs by broth microdilution method; assay type: functional
# [11] = Antioxidant activity assessed as ABTS radical cation scavenging activity incubated for 10 mins under dark condition; assay type: functional
# [12] = Antioxidant activity assessed as DPPH radical scavenging potential measured for 30 mins optical density based analysis; assay type: functional
compound,measurement,setting,value
COc1ccc2c(CC(=O)ON[C@@H](CSCc3ccccc3)C(=O)OCc3ccccc3)c3[n+](cc2c1OC)CCc1cc2c(cc1-3)OCO2,IC50,HCT-8 [1],15 µM
same,IC50,HCT-116,15 µM
same,IC50,LS174T,15 µM
same,IC50,CCRF S-180,15 µM
same,IC50,ECa-109 cell line,15 µM
same,IC50,SW-620,15 µM
same,IC50,MKN-28,15 µM
same,IC50,SGC-7901,15 µM
COc1ccc2cc3[n+](cc2c1OC)CCc1cc(O)c(O)cc1-3,IC50,[2],9.06 µM
same,IC50,Acetylcholinesterase,7.8 µM
CCCCCCN(CCCCCC)c1cc(OC)c(OC)c2c[n+]3c(cc12)-c1cc2c(cc1CC3)OCO2,IC50,HeLa [3],0.26 µM
same,IC50,A549,0.26 µM
same,IC50,HCT-8 [4],0.26 µM
same,IC50,Bel-7402,0.26 µM
CCCC(CCC)C(=O)Oc1c(OC)ccc2cc3[n+](cc12)CCc1cc2c(cc1-3)OCO2,inhibition at 5 µM,HEK-293T,> 90%
COc1ccc2cc3[n+](cc2c1OC(=O)C[C@@H]1C[C@H]2CC[C@@H]1C2)CCc1cc2c(cc1-3)OCO2,inhibition at 5 µM,HEK-293T,> 90%
COc1cc(CN2CCN(C(=O)c3ccco3)CC2)c2cc3[n+](cc2c1O)CCc1cc2c(cc1-3)OCO2,CC50,Ca-Ski,344 µM
same,IC50,Ca-Ski,6.11 µM
COc1cc(CN2CCN(c3cccc4ccccc34)CC2)c2cc3[n+](cc2c1O)CCc1cc2c(cc1-3)OCO2,CC50,HeLa [5],478 µM
same,IC50,HeLa [5],8.31 µM
COc1cc(-c2ccc(-c3ccccc3)cc2)c2cc3[n+](cc2c1OC)CCc1cc2c(cc1-3)OCO2,IC50,MCF7,0.98 µM
same,IC50,[6],0.74 µM
COc1ccc2cc3[n+](cc2c1OCCCCCn1ccc2ccccc21)CCc1cc2c(cc1-3)OCO2,IC50,[7],9.64 µM
same,IC50,[8],17.1 µM
CCCCCCOc1c(OC)cc(/C=C2\SC(=O)NC2=O)c2c1CN1CCc3cc4c(cc3C1C2)OCO4 (centres undefined),MIC,Candida albicans,15 µM
same,MIC,Candida parapsilosis,60 µM
COc1ccc2cc3[n+](cc2c1OC(=O)c1ccc(C(C)(C)C)cc1)CCc1cc2c(cc1-3)OCO2,inhibition at 5 µM,HEK-293T,> 90%
COc1ccc2cc3[n+](cc2c1OCc1ccc(C#N)cc1)CCc1cc2c(cc1-3)OCO2,MIC,Escherichia coli,1.77 µM
same,MIC,Clostridium perfringens,1.77 µM
same,MIC,Staphylococcus aureus [9],1.77 µM
same,MIC,Streptococcus pyogenes,1.77 µM
same,MIC,Shigella dysenteriae,1.77 µM
same,MIC,Staphylococcus aureus [10],1.77 µM
same,MIC,Salmonella enteritidis,1.77 µM
same,MIC,Pseudomonas aeruginosa,1.77 µM
COc1c(OC(=O)C23CC4CC(CC(C4)C2)C3)ccc2cc3[n+](cc12)CCc1cc2c(cc1-3)OCO2,inhibition at 5 µM,HEK-293T,> 90%
COc1ccc2cc3[n+](cc2c1OCc1ccc([N+](=O)[O-])cc1)CCc1cc2c(cc1-3)OCO2,MIC,Escherichia coli,1.71 µM
same,MIC,Clostridium perfringens,1.71 µM
same,MIC,Staphylococcus aureus [9],1.71 µM
same,MIC,Streptococcus pyogenes,1.71 µM
same,MIC,Shigella dysenteriae,1.71 µM
same,MIC,Staphylococcus aureus [10],1.71 µM
same,MIC,Salmonella enteritidis,1.71 µM
same,MIC,Pseudomonas aeruginosa,1.71 µM
COc1cc(CNc2nc3ccccc3s2)c2cc3[n+](cc2c1O)CCc1cc2c(cc1-3)OCO2,IC50,[11],8.48 µM
same,IC50,[12],25.4 µM
COc1ccc2cc3[n+](cc2c1OC)CCc1cc2c(cc1-3)OCO2 [BERBERINE CHLORIDE],IC50,HCT-8 [1],25 µM
same,IC50,HCT-116,25 µM
same,IC50,LS174T,25 µM
same,IC50,CCRF S-180,25 µM
same,IC50,ECa-109 cell line,25 µM
same,IC50,SW-620,25 µM
same,IC50,MKN-28,25 µM
same,IC50,SGC-7901,25 µM
